One data set has as its system Hep3B (HCC) cells. As to the kind of experiment: MTS cytotoxicity assay, Hep3B. It is filed as cell-based. Conditions: Homo sapiens, concentrations 1, 10, 50, 100, 300 µM, mean ± SD. How it is done:
(§1) Several tumor cell lines were used in this study including HeLa (cervical adenocarcinoma) HepG2, and Hep3B (HCC); B16F1 (melanoma); MCF-7 (breast carcinoma); Colo205 (colon adenocarcinoma); and CaCo-2 (colorectal adenocarcinoma), in addition to two normal cell lines LX-2 (human hepatic stellate) and Hek293t (kidney cell lines). All evaluated cells were incubated in RPMI-1640 medium and supplemented by 1% of Penicillin/Streptomycin antibiotics, 1% of l-glutamine, and 10% fetal bovine serum. The selected cells were cultivated at 37 °C in a wet environment containing 5% CO2.. In a 96-well plate, the seeding of cells was conducted as 2.5 × 10^4 cells per well. After 72 hr, the cells were confluent, the media was refreshed, and after that, all cells were incubated by several compounds’ concentrations (1, 10, 50, 100, and 300 µM). The viability of cells was investigated by the Cell Tilter 96® Aqueous One Solution Cell Proliferation (MTS) assay regarding the manufacturer’s instructions (Promega Corporation, Madison, WI). In the last step, 20 μL of MTS per 100 μL of media were added to each well and kept at 37 °C; after that at 490 nm wavelength the absorbance was collected.

The next data set has as its system B16F1 (melanoma) cells. The data set is described as follows: MTS cytotoxicity assay, B16F1. The format is cell-based. Conditions: Mus musculus, B16-F1, concentrations 1, 10, 50, 100, 300 µM, mean ± SD. How it is done: as §1
Data set [1] relates to Colo205 (colon adenocarcinoma) cells. The data set is described as follows: MTS cytotoxicity assay, Colo205. The format is cell-based. Particulars: Homo sapiens, COLO 205, concentrations 1, 10, 50, 100, 300 µM, mean ± SD. How it is done:
as §1

In the next data set the test system is HepG2 (HCC) cells. The data set is described as follows: MTS cytotoxicity assay, HepG2. It is filed as cell-based. Conditions: Homo sapiens, concentrations 1, 10, 50, 100, 300 µM, mean ± SD. How it is done: as §1
For data set [2], the system named is CaCo-2 (colorectal adenocarcinoma) cells. As to the kind of experiment: MTS cytotoxicity assay, CaCo-2. Conditions: Homo sapiens, concentrations 1, 10, 50, 100, 300 µM, mean ± SD. It is filed as cell-based. As for the experimental part:
as §1

Data set [3] deals with HeLa (cervical adenocarcinoma) cells. The data set is described as follows: MTS cytotoxicity assay, HeLa. Particulars: Homo sapiens, concentrations 1, 10, 50, 100, 300 µM, mean ± SD. It is filed as cell-based. How it is done: as §1
Data set [4] concerns MCF-7 (breast carcinoma) cells. The data set is described as follows: MTS cytotoxicity assay, MCF-7. The format is cell-based. Particulars: Homo sapiens, MCF7, concentrations 1, 10, 50, 100, 300 µM, mean ± SD. How it is done: as §1
Data set [5] relates to LX-2 (human hepatic stellate) cells. As to the kind of experiment: MTS cytotoxicity assay, normal cell line LX-2. It is filed as cell-based. Particulars: concentrations 1, 10, 50, 100, 300 µM. How it is done:
as §1

The test system of data set [6] is Hek293t (kidney cell lines). As to the kind of experiment: MTS cytotoxicity assay, normal cell line Hek293t. It is filed as cell-based. Conditions: Homo sapiens, HEK-293T, concentrations 1, 10, 50, 100, 300 µM, mean ± SD. How it is done:
as §1

For a further data set, the system named is Hep3B liver cancer cells. As to the kind of experiment: Hepatocellular carcinoma spheroids formation test (3D). It is filed as cell-based. Particulars: 24 h; for Effect on Hep3B spheroid formation: 17 μg/mL, compared to non-treated cells. How it is done: Hep3B liver cancer cells (4 × 10^3 per well) were seeded in round-bottomed supra-low attachment well plates over 24 h in the presence of 2b or 2e (17 μg/mL). Doxorubicin, a chemotherapeutic medication, was used as a positive control (100 μg/mL). Images of the formed spheroids/clusters were captured at 0 h and 24 h using an inverted microscope with a final magnification of 100×. The photographs of the spheroids were assessed and quantified using ImageJ software.

For data set [7] the following is noted: cited from earlier work.
The conditions of data set [8]: cited from earlier work. This is another data set of the same source.
The conditions of data set [9]: cited from earlier work. This is another data set of the same source.
Data set [10] has as its system Hep3B (HCC). Particulars: cited from earlier work.
Data set [11] concerns Hep3B (HCC). On the set-up: method as in PMID 33763478. Particulars: cited from earlier work.

Values after ≈ are worked out from the molar mass of the structure shown. Like-named read-outs stand apart in the source and are kept apart here.

Consider `O=C(Nc1ccccc1)c1ccc(-c2ccc(F)cc2)s1` [2a, 5-(4-fluorophenyl)-N-phenylthiophene-2-carboxamide], for which the melting point is 203.5 to 205 °C. The compound also returned an IC50 with Hep3B (HCC) cells of 28 ± 2.05 µM. This compound also yielded an IC50 in the data set on B16F1 (melanoma) cells greater than 300 µM. Further, in data set [1], the IC50 is greater than 300 µM. The compound further had an IC50 in the data set on HepG2 (HCC) cells of 283.7 ± 1.79 µM. Further, the half-maximal inhibitory concentration (IC50) in data set [2] was greater than 300 µM. For the same compound, the IC50 in data set [3] was greater than 300 µM. The same compound had an IC50 in [4] greater than 300 µM. This compound also showed an IC50 in [5] greater than 300 µM. Moreover, in [6], the IC50 was greater than 300 µM.

For `COc1cc(NC(=O)c2ccc(-c3ccc(F)cc3)s2)cc(OC)c1OC` [2b, 5-(4-fluorophenyl)-N-(3,4,5-trimethoxyphenyl) thiophene-2-carboxamide], the melting point was in the range of 190.8 to 192 °C. In the data set with Hep3B (HCC) cells, this compound had an IC50 of 5.46 ± 1.47 µM. The compound further had an IC50 with B16F1 (melanoma) cells greater than 300 µM. Further, the IC50 in [1] came out at 35.1 ± 2.05 µM. This compound came in with an IC50 in the data set on HepG2 (HCC) cells greater than 300 µM. Also, the IC50 in data set [2] is greater than 300 µM. Moreover, half-maximal inhibition in data set [3] (IC50) required 205 µM. Also, the concentration for half-maximal inhibition (IC50) in data set [4] amounted to 29.7 ± 2.74 µM. Besides, in data set [5], the IC50 was greater than 300 µM. For the same compound, the IC50 in [6] amounted to 278.1 ± 2.75 µM. Also, in the data set with Hep3B liver cancer cells, the “Effect on Hep3B spheroid formation” value is “significantly smaller spheroid”.

The compound `CC(C)(C)c1ccc(NC(=O)c2ccc(-c3ccc(F)cc3)s2)cc1` [2c, N-(4-(tert-butyl)phenyl)-5-(4-fluorophenyl) thiophene-2-carboxamide] gave a melting point of 218.5 to 220.4 °C. In addition, the IC50 in the data set with Hep3B (HCC) cells came to 189 ± 2.78 µM. Further, the IC50 in the data set on B16F1 (melanoma) cells is greater than 300 µM. In data set [1], this compound returned an IC50 greater than 300 µM. This compound gave an IC50 in the data set with HepG2 (HCC) cells greater than 300 µM. In [2], this compound registered an IC50 greater than 300 µM. For the same compound, in [3], the half-inhibitory concentration (IC50) was greater than 300 µM. Further, in data set [4], the IC50 is greater than 300 µM. Moreover, the IC50 in data set [5] was greater than 300 µM. In data set [6], this compound had an IC50 greater than 300 µM.

With `COc1cc(NC(=O)c2ccc(-c3ccc(F)cc3)s2)cc(OC)c1` [2d, N-(3,5-dimethoxyphenyl)-5-(4-fluorophenyl) thiophene-2-carboxamide], the melting point lay within 156.5 to 157 °C. This compound registered an IC50 in the data set with Hep3B (HCC) cells of 8.85 ± 1.45 µM. Besides, the IC50 in the data set on B16F1 (melanoma) cells was greater than 300 µM. The compound also registered an IC50 in [1] greater than 300 µM. The same compound displayed an IC50 in the data set with HepG2 (HCC) cells greater than 300 µM. Also, in [2], the IC50 is greater than 300 µM. Also, the IC50 in data set [3] was greater than 300 µM. In data set [4], this compound yielded an IC50 greater than 300 µM. The IC50 in [5] is greater than 300 µM. In addition, the IC50 in data set [6] was greater than 300 µM.

The compound `COc1cc(NC(=O)c2ccc(-c3ccc(F)cc3)s2)c(OC)cc1Cl` [2e, N-(4-chloro-2,5-dimethoxyphenyl)-5-(4-flurophenyl)thiophene-2-carboxamide] came in with a melting point of 185.5 to 187.5 °C. Moreover, it took 12.6 ± 2.57 µM to reach half-maximal inhibition in the data set with Hep3B (HCC) cells (IC50). The compound further displayed an IC50 with B16F1 (melanoma) cells of 112 ± 1.99 µM. For the same compound, in data set [1], the IC50 was found to be 74.8 ± 1.45 µM. This compound also registered an IC50 in the data set with HepG2 (HCC) cells of 18.2 ± 0.78 µM. In [2], the IC50 came out at 82.9 ± 2.45 µM. The compound also registered an IC50 in data set [3] of 39.6 ± 1.88 µM. The compound also gave an IC50 in data set [4] of 42.5 ± 2.59 µM. This compound came in with an IC50 in data set [5] greater than 300 µM. In data set [6], this compound registered an IC50 of 105 ± 1.08 µM. In addition, the “Effect on Hep3B spheroid formation” value in the data set with Hep3B liver cancer cells is “inhibited spheroid formation”.

Consider `COc1ccc(/C=C\c2cc(OC)c(OC)c(OC)c2)cc1O` [CA-4, Combretastatin A-4], for which, in data set [7], the Water solubility entry is given as “poor”. Also, the Plasma half-life result in data set [8] was “short”. For the same compound, the Chemical stability result in [9] is “chemical instability”.

On to `COc1cccc2c1C(=O)c1c(O)c3c(c(O)c1C2=O)C[C@@](O)(C(=O)CO)C[C@@H]3O[C@H]1C[C@H](N)[C@H](O)[C@H](C)O1` [DOX, Doxorubicin, reference compound], for which the IC50 in the data set on Hep3B (HCC) cells is 1.21 ± 1 µM; in the data set with B16F1 (melanoma) cells it was less than 1 µM; in data set [1], less than 1 µM; in the data set with HepG2 (HCC) cells it was 1.6 ± 0.67 µM; in data set [2], less than 1 µM; in [3], 1.55 ± 1.35 µM. Further, the figures for the IC50 in [4], in data set [5] and in data set [6] were less than 1 µM, less than 1 µM and 1.24 ± 0.87 µM, respectively. For the same compound, the “Effect on Hep3B spheroid formation (positive control)” value in the data set on Hep3B liver cancer cells (100 μg/mL) was “no recognized sphere formation”.

As for `COc1ccc(OC)c(NC(=O)c2c(-c3ccccc3Cl)noc2C)c1` [St.1, 3-(2-chlorophenyl)-N-(2,5-dimethoxyphenyl)-5-methylisoxazole-4-carboxamide], the “IC50 against Hep3B” value in the data set on Hep3B (HCC) [10] (earlier isoxazole-carboxamide series, ortho halogen) was 23 µg/mL (≈ 61.7 µM). The Cell cycle effect entry with Hep3B (HCC) [11] is on record as “cell cycle arrest in the G2/M phase”.

As for `COc1ccc(NC(=O)c2c(-c3ccc(F)cc3)noc2C)cc1OC` [St.2, N-(3,4-dimethoxyphenyl)-3-(4-fluorophenyl)-5-methylisoxazole-4-carboxamide], the “IC50 against Hep3B” value in the data set with Hep3B (HCC) [10] (earlier fluorophenyl-isoxazole series, para halogen) is 7.66 µg/mL (≈ 21.5 µM).

Regarding `Cc1onc(-c2c(F)cccc2Cl)c1C(=O)Nc1ccc(C(C)(C)C)cc1` [St.3, N-(4-(tert-butyl)phenyl)-3-(2-chloro-6-fluorophenyl)-5-methylisoxazole-4-carboxamide], in the data set with Hep3B (HCC) [10] (earlier series with two halogens at ortho positions), the “IC50 against Hep3B” value is listed as 2.77 µg/mL (≈ 7.16 µM).

(Values after publication PMC9775471, “Anticancer Activity of Thiophene Carboxamide Derivatives as CA-4 Biomimetics: Synthesis, Biological Potency, 3D Spheroid Model, and Molecular Dynamics Simulation” (Biomimetics, 2022).)
